Source: patent publication US10457707B2, “Substituted urea depsipeptide analogs as activators of the CLPP endopeptidase” (priority 2015, dated 2019)
≈ marks a conversion by molar mass, not a printed value. Like-named read-outs stand apart in the source and are kept apart here. *1 amine or outer side, *2 acyl side, *3 side chain or, on linkers, in order; H or OH if unused. Where a SMILES comes first, the peptide text is derived from it. Bridges are numbered along the chain shown (N, C = ends). [ ]: non-standard residue; d: D form. The star is where a group is joined. ξ: configuration not given here. Phe(3,5-F2) = N[C@@H](Cc1cc(F)cc(F)c1)C(=O)O; Morpholine(3S-CO) = O=C(O)[C@@H]1COCCN1; Pro(4S-Me) = C[C@@H]1CN[C@H](C(=O)O)C1; NH(4-Cl-2-F-phenyl) = Fc1cc(Cl)ccc1N*; Pro(4R-Me) = C[C@H]1CN[C@H](C(=O)O)C1; ξPro(4R-OH) = O=C(O)C1C[C@@H](O)CN1; NMeaThr = CN[C@H](C(=O)O)[C@H](C)O; ξPro(4R-Me) = C[C@H]1CNC(C(=O)O)C1; Hyp = O=C(O)[C@@H]1C[C@@H](O)CN1; NH(4-Me-phenyl) = Cc1ccc(N*)cc1; aThr = C[C@H](O)[C@H](N)C(=O)O; Pip = O=C(O)[C@@H]1CCCCN1; NMeA = CN[C@@H](C)C(=O)O; X1 = N#Cc1cc(N*)ccc1F; CO = O=C([*:1])[*:2]

Legend:
Format in all cases: cell-based
[1] = Cytotoxicity assay (CellTiter-Glo cell viability, 72 hours); conditions: African green monkey
In short: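 Viability measured by CellTiter-Glo luminescence after 72-hour compound exposure (serial dilutions, DMSO control) of Vero monolayers seeded at 5000 cells/well in 10% FBS DMEM. IC50 values are the range of two biologically independent experiments, each run in duplicate.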

[2] = system: Staphylococcus aureus, NRS70; assay: Minimal inhibitory concentration assay (microbroth dilution)
In short: (§1)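 Compound is serially diluted two-fold in the appropriate broth, and bacterial inoculum at about 10^5 cfu/mL is added so the highest final concentration is 200 μM. Plates stay overnight at 37 °C under aerobic conditions before growth is scored by eye.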

[3] = system: Bacillus subtilis, ATCC 23857; assay: as above
In short: as §1

[4] = system: Staphylococcus aureus, ATCC 29213; assay: as above; conditions: ATCC29213, read-out: Minimal Inhibitory Concentrations S. aureus ATCC 29213
In short: as §1

[5] = system: Streptococcus pyogenes, ATCC 700294; assay: as above
In short: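 Plates with two-fold compound dilution series in broth were incubated overnight, aerobically, at 37° C, following CLSI microdilution guidance.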

[6] = Staphylococcus aureus, NRS70; read-out: Minimal Inhibitory Concentrations S. aureus NRS70
[7] = Bacillus subtilis, ATCC23857; read-out: Minimal Inhibitory Concentrations B. subtilis ATCC 23857
[8] = Streptococcus pyogenes, ATCC700294; read-out: Minimal Inhibitory Concentrations S. pyogenes ATCC 700294
[9] = Vero cells, 72 hours, growth inhibition, read-out: Cytotoxicity IC50
[10] = Staphylococcus aureus, NRS70, read-out: Minimal Inhibitory Concentrations S. aureus NRS70
[11] = Bacillus subtilis, ATCC23857, read-out: Minimal Inhibitory Concentrations B. subtilis ATCC 23857
[12] = Streptococcus pyogenes, ATCC700294, read-out: Minimal Inhibitory Concentrations S. pyogenes ATCC 700294

## C[C@@H]1C[C@H]2C(=O)O[C@@H](C)[C@H](NC(=O)[C@H](Cc3cc(F)cc(F)c3)NC(=O)Nc3ccc(Cl)cc3F)C(=O)N3CCC[C@H]3C(=O)N3CCOC[C@H]3C(=O)N[C@@H](C)C(=O)N2C1 [Compound 314, (S)-2-(3-(4-chloro-2-fluorophenyl)ureido)-3-(3,5-difluorophenyl)-N-((6aS,12S,13S,15aS,17R,21S,23aS)-13,17,21-trimethyl-6,11,15,20,23-pentaoxooctadecahydro-6H,11H,15H-[1,4]oxazino[3,4-i]dipyrrolo[2,1-c:2′,1′-l][1]oxa[4,7,10,13]tetraazacyclo-hexadecin-12-yl)propanamide] ({NH(4-Cl-2-F-phenyl)-CO}-[Phe(3,5-F2)][aThr]P[Morpholine(3S-CO)]A[Pro(4R-Me)]; ester 2-C)
[1]
  IC50 at 72 h: 2.39 ± 0.8 µM
[2]; [6]
  MIC: < 0.02 µM
[3]; [7]
  MIC: < 0.02 µM
[4]
  MIC: < 0.02 µM
[5]; [8]
  MIC: < 0.02 µM

## Cc1ccc(NC(=O)N[C@@H](Cc2cc(F)cc(F)c2)C(=O)N[C@H]2COC(=O)[C@@H]3C[C@@H](C)CN3C(=O)[C@H](C)NC(=O)[C@@H]3COCCN3C(=O)[C@@H]3C[C@@H](O)CN3C2=O)cc1 [Compound 317, (S)-3-(3,5-difluorophenyl)-N-((6aS,8R,12S,15aS,17R,21S,23aS)-8-hydroxy-17,21-dimethyl-6,11,15,20,23-pentaoxooctadecahydro-6H,11H,15H-[1,4]oxazino[3,4-i]dipyrrolo[2,1-c:2′,1′-l][1]oxa[4,7,10,13]tetraazacyclohexadecin-12-yl)-2-(3-(p-tolyl)ureido)propanamide] ({NH(4-Me-phenyl)-CO}-[Phe(3,5-F2)]S[Hyp][Morpholine(3S-CO)]A[Pro(4R-Me)]; ester 2-C)
[1]; [9]
  IC50 at 72 h: > 100 µM
[2]; [10]
  MIC: 2.5 µM (≈ 2.03 µg/mL)
[3]; [11]
  MIC: 10 µM (≈ 8.12 µg/mL)
[4]
  MIC: 2.5 µM (≈ 2.03 µg/mL)
[5]; [12]
  MIC: 0.156 µM (≈ 0.127 µg/mL)

## Cc1ccc(NC(=O)N[C@@H](Cc2cc(F)cc(F)c2)C(=O)N[C@@H]2C(=O)N3CCC[C@H]3C(=O)N(C)[C@@H]([C@H](C)O)C(=O)N[C@@H](C)C(=O)N3C[C@@H](C)C[C@H]3C(=O)O[C@H]2C)cc1 [Compound 202, (S)-3-(3,5-difluorophenyl)-N-((2S,6S,9S,11aS,17S,18S,20aS)-9-((S)-1-hydroxyethyl)-2,6,10,18-tetramethyl-5,8,11,16,20-pentaoxohexadecahydro-1H,5H,16H-dipyrrolo[2,1-c:2′,1′-L][1]oxa[4,7,10,13]tetraazacyclohexadecin-17-yl)-2-(3-(p-tolyl)ureido)propanamide] ({NH(4-Me-phenyl)-CO}-[Phe(3,5-F2)][aThr]P[NMeaThr]A[Pro(4S-Me)]; ester 2-C)
[1]; [9]
  IC50 at 72 h: 55.7 ± 3.6 µM
[2]; [10]
  MIC: 0.098 µM (≈ 0.0796 µg/mL)
[3]; [11]
  MIC: 0.195 µM (≈ 0.158 µg/mL)
[4]
  MIC: 0.195 µM (≈ 0.158 µg/mL)
[5]; [12]
  MIC: 0.391 µM (≈ 0.317 µg/mL)

## C[C@@H]1C[C@H]2C(=O)O[C@@H](C)[C@H](NC(=O)[C@H](Cc3cc(F)cc(F)c3)NC(=O)Nc3ccc(F)c(C#N)c3)C(=O)N3CCC[C@H]3C(=O)N3CCCC[C@H]3C(=O)N[C@@H](C)C(=O)N2C1 [Compound 324, (S)-2-(3-(3-cyano-4-fluorophenyl)ureido)-3-(3,5-difluorophenyl)-N-((2R,6S,8aS,14aS,20S,21S,23aS)-2,6,21-trimethyl-5,8,14,19,23-pentaoxooctadecahydro-1H,5H,14H,19H-pyrido[2,1-i]dipyrrolo[2,1-c:2′,1′-l][1]oxa[4,7,10,13]tetraazacyclo-hexadecin-20-yl)propanamide] ({X1-CO}-[Phe(3,5-F2)][aThr]P[Pip]A[Pro(4R-Me)]; ester 2-C)
[1]
  IC50 at 72 h: 10.2 ± 0.5 µM
[2]; [6]
  MIC: 0.313 µM (≈ 0.262 µg/mL)
[3]; [7]
  MIC: 0.625 µM (≈ 0.523 µg/mL)
[4]
  MIC: 0.313 µM (≈ 0.262 µg/mL)
[5]; [8]
  MIC: 1.25 µM (≈ 1.05 µg/mL)

## Cc1ccc(NC(=O)N[C@@H](Cc2cc(F)cc(F)c2)C(=O)N[C@@H]2C(=O)N3C[C@H](O)C[C@H]3C(=O)N(C)[C@@H](C)C(=O)N[C@@H](C)C(=O)N3C[C@@H](C)C[C@H]3C(=O)O[C@H]2C)cc1 [Compound 214, (S)-3-(3,5-difluorophenyl)-N-((2S,6S,9S,11aS,13R,17S,18S,20aS)-13-hydroxy-2,6,9,10,18-pentamethyl-5,8,11,16,20-pentaoxohexadecahydro-1H,5H,16H-dipyrrolo[2,1-c:2′,1′-l][1]oxa[4,7,10,13]tetraazacyclohexadecin-17-yl)-2-(3-(p-tolyl)ureido)propanamide] ({NH(4-Me-phenyl)-CO}-[Phe(3,5-F2)][aThr][Hyp][NMeA]A[Pro(4S-Me)]; ester 2-C)
[1]; [9]
  IC50 at 72 h: > 100 µM
[2]; [10]
  MIC: 0.391 µM (≈ 0.312 µg/mL)
[3]; [11]
  MIC: 0.391 µM (≈ 0.312 µg/mL)
[4]
  MIC: 0.391 µM (≈ 0.312 µg/mL)
[5]; [12]
  MIC: 0.781 µM (≈ 0.623 µg/mL)

## Cc1ccc(NC(=O)N[C@@H](Cc2cc(F)cc(F)c2)C(=O)N[C@@H]2C(=O)N3C[C@H](O)CC3C(=O)N(C)[C@@H](C)C(=O)N[C@@H](C)C(=O)N3C[C@H](C)CC3C(=O)O[C@H]2C)cc1 (stereo partly drawn) [Compound 31, (S)-3-(3,5-difluorophenyl)-N-((2S,6S,9S,11aS,13R,17S,18S,20aS)-13-hydroxy-2,6,9,10,18-pentamethyl-5,8,11,16,20-pentaoxohexadecahydro-1H,5H,16H-dipyrrolo[2,1-c:2′,1′-l][1]oxa[4,7,10,13]tetraazacyclohexadecin-17-yl)-2-(3-(p-tolyl)ureido)propanamide] ({NH(4-Me-phenyl)-CO}-[Phe(3,5-F2)][aThr][ξPro(4R-OH)][NMeA]A[ξPro(4R-Me)]; ester 2-C)
[1]; [9]
  IC50 at 72 h: > 100 µM
[2]; [10]
  MIC: 0.39 µM (≈ 0.311 µg/mL)
[3]; [11]
  MIC: 0.39 µM (≈ 0.311 µg/mL)
[4]
  MIC: 0.39 µM (≈ 0.311 µg/mL)
[5]; [12]
  MIC: 0.78 µM (≈ 0.622 µg/mL)

## Cc1ccc(NC(=O)N[C@@H](Cc2cc(F)cc(F)c2)C(=O)N[C@H]2COC(=O)[C@@H]3C[C@@H](C)CN3C(=O)[C@H](C)NC(=O)C3CCCCN3C(=O)[C@@H]3C[C@@H](O)CN3C2=O)cc1 (stereo partly drawn) [Compound 323, (S)-3-(3,5-difluorophenyl)-N-((2R,6S,8aR,14aS,16R,20S,23aS)-16-hydroxy-2,6-dimethyl-5,8,14,19,23-pentaoxooctadecahydro-1H,5H,14H,19H-pyrido[2,1-i]dipyrrolo[2,1-c:2′,1′-l][1]oxa[4,7,10,13]tetraazacyclohexadecin-20-yl)-2-(3-(p-tolyl)ureido)propanamide]
[1]; [9]
  IC50 at 72 h: > 100 µM
[2]; [10]
  MIC: 0.625 µM (≈ 0.506 µg/mL)
[3]; [11]
  MIC: 0.313 µM (≈ 0.253 µg/mL)
[4]
  MIC: 0.625 µM (≈ 0.506 µg/mL)
[5]; [12]
  MIC: 0.156 µM (≈ 0.126 µg/mL)

## C[C@@H]1C[C@H]2C(=O)OC[C@H](NC(=O)[C@H](Cc3ccccc3)NC(=O)Nc3ccc4c(c3)OCO4)C(=O)N3CCC[C@H]3C(=O)N3CCCC[C@H]3C(=O)N[C@@H](C)C(=O)N2C1 [Compound 194, (S)-2-(3-(benzo[d][1,3]dioxol-5-yl)ureido)-N-((2R,6S,8aS,14aS,20S,23aS)-2,6-dimethyl-5,8,14,19,23-pentaoxooctadecahydro-1H,5H,14H,19H-pyrido[2,1-i]dipyrrolo[2,1-c:2′,1′-l][1]oxa[4,7,10,13]tetraazacyclohexadecin-20-yl)-3-phenylpropanamide]
[1]
  IC50 at 72 h: > 100 µM
[2]; [6]
  MIC: 0.39 µM (≈ 0.307 µg/mL)
[3]; [7]
  MIC: 0.39 µM (≈ 0.307 µg/mL)
[4]
  MIC: 1.56 µM (≈ 1.23 µg/mL)
[5]; [8]
  MIC: < 0.2 µM

## Cc1ccc(NC(=O)N[C@@H](Cc2cc(F)cc(F)c2)C(=O)N[C@H]2COC(=O)[C@@H]3C[C@@H](C)CN3C(=O)[C@H](C)NC(=O)[C@@H]3CCCCN3C(=O)[C@@H]3CCCN3C2=O)cc1C [Compound 207, (S)-3-(3,5-difluorophenyl)-N-((2R,6S,8aS,14aS,20S,23aS)-2,6-dimethyl-5,8,14,19,23-pentaoxooctadecahydro-1H,5H,14H,19H-pyrido[2,1-i]dipyrrolo[2,1-c:2′,1′-l][1]oxa[4,7,10,13]tetraazacyclohexadecin-20-yl)-2-(3-(3,4-dimethylphenyl)ureido)propanamide]
[1]; [9]
  IC50 at 72 h: 31.1 ± 5.6 µM
[2]; [10]
  MIC: < 0.2 µM
[3]; [11]
  MIC: < 0.2 µM
[4]
  MIC: < 0.2 µM
[5]; [12]
  MIC: < 0.2 µM

## C[C@@H]1C[C@H]2C(=O)O[C@@H](C)[C@H](NC(=O)[C@H](Cc3cc(F)cc(F)c3)NC(=O)Nc3ccc(Cl)cc3F)C(=O)N3C[C@H](O)C[C@H]3C(=O)N3CCCC[C@H]3C(=O)N[C@@H](C)C(=O)N2C1 [Compound 329, (S)-2-(3-(4-chloro-2-fluorophenyl)ureido)-3-(3,5-difluorophenyl)-N-((2R,6S,8aS,14aS,16R,20S,21S,23aS)-16-hydroxy-2,6,21-trimethyl-5,8,14,19,23-pentaoxooctadecahydro-1H,5H,14H,19H-pyrido[2,1-i]dipyrrolo[2,1-c:2′,1′-l][1]oxa[4,7,10,13]tetraazacyclo-hexadecin-20-yl)propanamide] ({NH(4-Cl-2-F-phenyl)-CO}-[Phe(3,5-F2)][aThr][Hyp][Pip]A[Pro(4R-Me)]; ester 2-C)
[1]
  IC50 at 72 h: 24.5 ± 2.5 µM
[2]; [6]
  MIC: 0.039 µM (≈ 0.0336 µg/mL)
[3]; [7]
  MIC: 0.039 µM (≈ 0.0336 µg/mL)
[4]
  MIC: 0.078 µM (≈ 0.0673 µg/mL)
[5]; [8]
  MIC: 0.078 µM (≈ 0.0673 µg/mL)
